Patent US20250018030A1, “PHARMACEUTICAL COMPOSITION FOR PROMOTING CANCER IMMUNOTHERAPY AND METHOD FOR PROMOTING CANCER IMMUNOTHERAPY” (China Medical University, priority 2023, published 2025)

Key:
[1] = system: Th17 cells; assay: Cytokine staining of genipin-treated skewed Th17 cells; format: cell-based, Mouse; conditions: data not shown
Procedure: Mouse lymph nodes and spleens were harvested, and naïve CD4 or CD8 T cells isolated via magnetic bead separation (STEMCELL Technologies) and activated in α-CD3 (10 μg/ml) and α-CD28 (1 μg/ml) pre-coated 96-well plates. Skewing conditions were as follows: Th1 cells/Tc1 cells ([…] 10 μ/ml α-IL-4), Th2 cells/Tc2 cells (20 ng/ml IL-4 and 10 μ/ml α-IFN-γ), Th17 cells/Tc17 cells (20 ng/ml IL-6, 1.25 ng/ml […], 20 ng/ml IL-1β, 20 ng/ml IL-23, 10 μg/ml α-IFN-γ and 10 μg/ml α-IL-4), and Treg cells (5 ng/ml TGF-β, 10 μg/ml α-IFN-γ and 10 μg/ml α-IL-4) in the indicated medium. Cells were cultured for 4-5 days followed by treatment with genipin (3.125 μM, 6.25 μM, 12.5 μM) or DMSO for 12-16 hours.
(§1) Monoclonal antibodies were purchased from BD Biosciences or eBioscience. For intracellular cytokine staining (ICS), cells were first restimulated by PMA/ionomycin for 5 hours in the presence of GolgiStop (BD Biosciences), followed by surface epitope staining markers before being fixed/permeabilized (BD Cytofix/Cytoperm™) and stained with antibodies targeting intracellular antigens. Cells were finally fixed with 1.5% formaldehyde for 10 minutes at room temperature and analyzed on a FACSVerse flow cytometer (BD Bioscience). Data were analyzed using FlowJo software (Tree Star Inc.).

[2] = system: Pan18 cells; assay: Orthotopic PDAC tumor model (Pan18 cells injected in pancreas); format: in vivo, mice; conditions: for Survival, bioluminescent tumor growth and tumor weight: FIG. 5H-5J
Procedure: as §1
For Pan18-subcutaneous implantation, 5×10^5 Pan18 cells were administered to wild-type (WT) or IL-17^−/− mice. Genipin (5 mg/kg, 10 mg/kg, or 30 mg/kg, i.p., every two days) was administered to Pan18-bearing mice for 3 weeks. For 3036-subcutanous implantation, 2×10^5 3036 cells were administered to WT mice. Genipin (10 mg/kg, i.p., every two days) and recombinant anti-IL-17 receptor antibody (αIL-17RA) (1 mg/kg, i.v., once a week) were administered to 3036-bearing mice for 3 weeks. Tumor volumes were evaluated every 2 days. For the orthotopic tumor modelling, mice pancreases were injected with 2×10^5 Pan18 cells and monitored for tumor growth weekly using IVIS kinetics imaging system (Caliper Life-Sciences). Genipin (10 mg/kg, i.p., every two days) or αIL-17RA (1 mg/kg, i.v., once a week) was administered 1 week after tumor implantation. Mice were sacrificed 35 days after tumor induction and tumors weighed. For spontaneous pancreatic cancer model, Cre-dependent conditional knockin mutations of KrasG12D Kras^+/LSLG12D mice (B6; 129-Kras2) were obtained from the Mouse Models of Human Cancer Consortium. Elas-CreERT; Kras^+/LSLG12D mice was generated by breeding Kras^+/LSLG12D mice with Elas-CreER mice obtained from the Level Transgenic Center. To induce the expression of Kras^+/LSLG12D in acinar cells, 5-week-old Elas-CreERT; Kras^+/LSLG12D male mice were injected with 100 μl of tamoxifen (20 mg/ml, i.p., three times per week) for 1 week. To induce chronic inflammation and tumors, 100 μl of cerulein (50 μg/ml, i.p., six times per week) (BACHEM) was given to the mice for 3 weeks. Then, the mice were injected with genipin (10 mg/kg, i.p., every two days) and αIL-17RA (1 mg/kg, i.v., once a week) until the end of the experiment, and overall survival was monitored. For genetically CD4/CD8-specific UCP2 deletion tumor modelling, we generated CD4Cre×UCP2^f/f mice by crossing loxP-UCP2-loxP mice with CD4Cre mice. CD4Cre×UCP2^f/f, WT, and loxP control mice underwent subcutaneous implantation of 2×10^5 Pan18 cells, followed by treatment with αIL-17RA (1 mg/kg, i.v., once a week) for 3 weeks. For melanoma modelling, IL-17/-and WT mice underwent subcutaneous implantation of 5×10^5 B16F10 cells, followed by treatment with genipin (10 mg/kg, i.p., every two days) for 3 weeks. For CD8 depletion tumor modelling, IL-17^−/− mice underwent subcutaneous implantation of 2×10^5 Pan18 cells, followed by treatment with genipin (10 mg/kg, i.p., every two days) and CD8 neutralizing antibody (5 mg/kg, i.v., once a week) for 3 weeks. Tumor volumes were evaluated every 3 days.

[3] = system: Tc1 cells; assay: Metabolic assays (Seahorse ECAR/OCR, mitochondrial pyruvate and acetyl CoA) in Tc1 cells; format: cell-based, Mouse
Procedure: The real-time extracellular acidification rate (ECAR) and oxygen consumption rate (OCR) were measured using a Seahorse XF24 analyzer (Seahorse Bioscience), within XF Glycolysis Stress and XF Cell Mito Stress Test kits used to assess glycolysis and oxidative phosphorylation. 5×10^5 cells exposed to the indicated treatments were plated in an XF-24 microplate coated with Cell-Tak (Corning) one day before the assay. ECAR and OCR were measured after metabolic manipulations by the addition of oligomycin, carbonyl cyanide-p-trifluoromethoxy-phenylhydrazone (FCCP), 2-deoxyglucose (2-DG) and rotenone/anti-mycin A (R/A). Calculations were conducted with Agilent Seahorse Wave Software for Agilent Seahorse XF analyzers (Seahorse Bioscience). For isolation of mitochondria, Tc1 cells were frozen and thawed to weaken the membranes and resuspended in Reagent A of a mitochondria isolation kit (ab110170, Abcam), before being homogenized and centrifuged at 1,000×g for 10 minutes at 4° C. Supernatant was saved (SN #1) and the pellet resuspended in Reagent B. After homogenization and centrifugation, supernatant was saved (SN #2). SN #1 and SN #2 were mixed thoroughly and centrifuged at 12,000×g for 15 minutes at 4° C. The pellet was collected in Reagent C supplemented with protease inhibitors and was used for the pyruvate and acetyl COA assays. Briefly, the mitochondrial pyruvate and acetyl CoA levels in the Tc1 cells were assessed using a commercial Pyruvate Assay Kit (ab65342, Abcam) and PicoProbe Acetyl COA Assay Kit (ab87546, Abcam) according to the manufacturer's instructions.

[4] = genipin-treated Tc1 cells, data not shown

COC(=O)C1=CO[C@@H](O)[C@@H]2C(CO)=CC[C@H]12 [genipin]
IFN-γ in Th17 cells [1]: increased IFN-γ
IL-17 expression in Th17 cells [1]: without an impact on IL-17 expression
Survival, bioluminescent tumor growth and tumor weight ([2]; IL-17−/− mice, genipin 10 mg/kg i.p. every two days, 3 weeks): significant benefit
Tumor-infiltrating population of Tc1 cells ([2]; IL-17−/− mice, genipin 10 mg/kg, FIG. 5K): increased
Tumor-infiltrating population of Th1 cells ([2]; IL-17−/− mice, genipin 10 mg/kg, FIG. 5L): increased
Tumor-infiltrating population of MDSC ([2]; IL-17−/− mice, genipin 10 mg/kg, FIG. 5N): increased
Survival, bioluminescent tumor growth and tumor weight ([2]; WT mice, genipin 10 mg/kg alone (singular UCP2 targeting)): no impact
Glycolysis readout, ECAR ([3]; genipin 12.5 μM, Seahorse XF24, FIG. 2E): no functional impact
Oxidative phosphorylation, OCR ([3]; genipin 12.5 μM, Seahorse XF24, FIG. 2F): promoted oxidative phosphorylation
Acetyl CoA level in the mitochondria ([3]; genipin-treated Tc1 cells, FIG. 2G): increased the level of acetyl CoA
Mitochondrial pyruvate ([3]; genipin-treated Tc1 cells, FIG. 2H): parallel increase
Acetyl CoA level in the cytosol [3, 4]: increased the level of acetyl CoA
Cytosolic fraction of pyruvate [3, 4]: decreased
